Measurements as given in ChEMBL document CHEMBL5543087 (Eur J Med Chem, 2024).
pIC50: −log10 of the molar value. Structures can show the parent of a compound that is named as a salt. Numbered stars: 1 amine (or outer) side, 2 acyl side, 3 side chain; on linkers, the order of the positions; unused ones are H or OH. Square brackets hold non-standard residues; d marks the D form. Peptide text beside a SMILES is read from it. * marks the point of attachment. X2 = C[C@@](N[*:1])(C(=O)[*:2])C(F)(F)F; X1 = C[C@](N[*:1])(C(=O)[*:2])C(F)(F)F; Sta = CC(C)C[C@H](N)[C@@H](O)CC(=O)O; Cbz = O=C(OCc1ccccc1)*; Tfa = O=C(C(F)(F)F)*

How the values were obtained:
[1] = Inhibition of porcine gastric mucosa Pepsin using MCA labeled GKPILFFRLK(DNP)-D-R-NH2 as substrate preincubated for 10 mins followed by substrate addition by FRET assay; design: species or system Sus scrofa
[2] = Chromatographic hydrophobicity index of compound incubated for 20 mins by reversed-phase HPLC analysis; format: ADME
[3] = Lipophilicity, logP of compound in n-Octanol/water; format: physicochemical
[4] = test system: BJ; experiment: Cytotoxicity against human BJ cells assessed as increase in LDH activity incubated for 24 hrs; format: toxicity, cell-based
[5] = test system: SK-OV-3; experiment: Cytotoxicity against human SK-OV-3 cells assessed as increase in LDH activity incubated for 24 hrs; format: toxicity, cell-based; settings: sk-ov-3, 24 h
[6] = test system: SK-OV-3; experiment: Cytotoxicity against human SK-OV-3 cells assessed as increase in LDH activity at IC50 incubated upto 96 hrs; format: toxicity, cell-based; settings: sk-ov-3, 96 h
[7] = test system: SK-OV-3; experiment: Cytotoxicity against human SK-OV-3 cells assessed as increase in LDH activity at 40 uM incubated upto 96 hrs; format: toxicity, cell-based; settings: sk-ov-3, 96 h
[8] = test system: BJ; experiment: Cytotoxicity against human BJ cells assessed as increase in LDH activity at IC50 incubated upto 96 hrs; format: toxicity, cell-based
[9] = test system: SK-OV-3; experiment: Cytotoxicity against human SK-OV-3 cells assessed as change in cell morphology at IC50 incubated for 24 hrs by DAPI fluorescent staining analysis; format: toxicity, cell-based; settings: sk-ov-3, 24 h
[10] = test system: SK-OV-3; experiment: Cytotoxicity against human SK-OV-3 cells assessed as change in nucleus morphology at IC50 incubated for 24 hrs by DAPI fluorescent staining analysis; format: toxicity, cell-based; settings: sk-ov-3, 24 h
[11] = test system: SK-OV-3; experiment: Cytotoxicity against human SK-OV-3 cells assessed as diffused F-actin network at IC50 incubated for 24 hrs by phalloidin fluorescent staining analysis; format: toxicity, cell-based; settings: sk-ov-3, 24 h
[12] = test system: SK-OV-3; experiment: Cytotoxicity against human SK-OV-3 cells assessed as cell retraction at 40 uM incubated for 24 hrs by DAPI fluorescent staining analysis; format: toxicity, cell-based; settings: sk-ov-3, 24 h
[13] = test system: SK-OV-3; experiment: Cytotoxicity against human SK-OV-3 cells assessed as change in cell cytoskeleton at IC50 incubated for 24 hrs by phalloidin fluorescent staining analysis; format: toxicity, cell-based; settings: sk-ov-3, 24 h
[14] = test system: SK-OV-3; experiment: Cytotoxicity against human SK-OV-3 cells assessed as change in fibronectin matrix organization at IC50 incubated for 24 hrs by phalloidin fluorescent staining analysis; format: toxicity, cell-based; settings: sk-ov-3, 24 h
[15] = test system: SK-OV-3; experiment: Cytotoxicity against human SK-OV-3 cells assessed as change in cell cytoskeleton at 40 uM incubated for 24 hrs by phalloidin fluorescent staining analysis; format: toxicity, cell-based; settings: sk-ov-3, 24 h
[16] = test system: SK-OV-3; experiment: Cytotoxicity against human SK-OV-3 cells assessed as change in fibronectin matrix organization at 40 uM incubated for 24 hrs by phalloidin fluorescent staining analysis; format: toxicity, cell-based; settings: sk-ov-3, 24 h
[17] = test system: SK-OV-3; experiment: Cytotoxicity against human SK-OV-3 cells assessed as increase in LDH activity at 28 uM incubated upto 96 hrs; format: toxicity, cell-based; settings: sk-ov-3, 96 h
[18] = test system: SK-OV-3; experiment: Cytotoxicity against human SK-OV-3 cells assessed as cell retraction at 28 uM incubated for 24 hrs by DAPI fluorescent staining analysis; format: toxicity, cell-based; settings: sk-ov-3, 24 h
[19] = test system: SK-OV-3; experiment: Cytotoxicity against human SK-OV-3 cells assessed as change in cell cytoskeleton at 28 uM incubated for 24 hrs by phalloidin fluorescent staining analysis; format: toxicity, cell-based; settings: sk-ov-3, 24 h
[20] = test system: SK-OV-3; experiment: Cytotoxicity against human SK-OV-3 cells assessed as change in fibronectin matrix organization at 28 uM incubated for 24 hrs by phalloidin fluorescent staining analysis; format: toxicity, cell-based; settings: sk-ov-3, 24 h
[21] = molecular target: Cathepsin D (Homo sapiens, UniProt P07339); experiment: Inhibition of human Cathepsin D using MCA labeled GKPILFFRLK(DNP)-D-R-NH2 as substrate preincubated for 10 mins followed by substrate addition by FRET assay
Sequence of Cathepsin D (P07339 65-162 limits assumed): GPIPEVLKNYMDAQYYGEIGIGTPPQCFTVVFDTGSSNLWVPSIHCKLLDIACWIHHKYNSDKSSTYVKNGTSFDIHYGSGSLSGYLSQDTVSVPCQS
Sequence of Cathepsin D (P07339 169-412 limits assumed): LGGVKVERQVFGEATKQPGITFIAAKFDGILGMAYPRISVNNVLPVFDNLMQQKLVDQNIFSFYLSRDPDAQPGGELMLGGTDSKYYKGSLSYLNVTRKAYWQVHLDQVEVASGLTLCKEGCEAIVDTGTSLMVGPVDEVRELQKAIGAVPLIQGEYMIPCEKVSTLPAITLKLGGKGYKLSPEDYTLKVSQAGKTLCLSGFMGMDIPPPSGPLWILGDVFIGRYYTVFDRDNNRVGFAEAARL

CC(C)CC(=O)N[C@H](CCSC(F)(F)F)C(=O)N[C@H](C(=O)N[C@@H](CC(C)C)[C@@H](O)CC(=O)N[C@@H](C)C(=O)N[C@@H](CC(C)C)[C@@H](O)CC(=O)O)C(C)C
pIC50 [1]: 7.51 | CHI [2]: 45.85 | logP [3]: 3.3 | Activity [4]: Non-Toxic | Activity [5]: Non-Toxic | Activity [6]: Non-Toxic | Activity [7]: Toxic | Activity [8]: Non-Toxic | Activity [9]: Toxic | Activity [10]: Toxic | Activity [11]: Toxic | Activity [12]: Toxic | Activity [13]: Toxic | Activity [14]: Toxic | Activity [15]: Toxic | Activity [16]: Toxic

CC(C)CC(=O)N[C@@H](C(=O)N[C@H](C(=O)N[C@@H](CCSC(F)(F)F)[C@@H](O)CC(=O)N[C@@H](C)C(=O)N[C@@H](CC(C)C)[C@@H](O)CC(=O)O)C(C)C)C(C)C
pIC50 [1]: 6.71

CC(C)CC(=O)N[C@@H](C(=O)N[C@H](C(=O)N[C@@H](CC(C)C)[C@@H](O)CC(=O)N[C@@H](C)C(=O)N[C@@H](CC(C)C)[C@@H](O)CC(=O)O)C(C)C)C(C)C
pIC50 [1]: 7.68 | Activity [4]: Non-Toxic | Activity [5]: Non-Toxic

CC(C)CC(=O)N[C@@H](CCSC(F)(F)F)C(=O)N[C@H](C(=O)N[C@@H](CC(C)C)[C@@H](O)CC(=O)N[C@@H](C)C(=O)N[C@@H](CC(C)C)[C@@H](O)CC(=O)O)C(C)C
pIC50 [1]: 6.11 | CHI [2]: 46.95 | logP [3]: 3.33 | Activity [4]: Non-Toxic | Activity [5]: Non-Toxic

CC(C)C[C@H](NC(=O)[C@H](C)NC(=O)C[C@H](O)[C@H](CC(C)C)NC(=O)[C@@H](NC(=O)[C@](C)(NC(=O)OCc1ccccc1)C(F)(F)F)C(C)C)[C@@H](O)CC(=O)O (Cbz-[X1]V[Sta]A[Sta]-OH)
pIC50 [1]: 7.32 | CHI [2]: 47.24 | logP [3]: 3.36 | Activity [4]: Non-Toxic | Activity [5]: Non-Toxic | Activity [6]: Non-Toxic | Activity [17]: Toxic | Activity [8]: Non-Toxic | Activity [9]: Toxic | Activity [10]: Toxic | Activity [11]: Toxic | Activity [18]: Toxic | Activity [13]: Toxic | Activity [14]: Toxic | Activity [19]: Toxic | Activity [20]: Toxic

CC(C)C[C@H](NC(=O)[C@H](C)NC(=O)C[C@H](O)[C@H](CC(C)C)NC(=O)[C@@H](NC(=O)[C@@](C)(NC(=O)OCc1ccccc1)C(F)(F)F)C(C)C)[C@@H](O)CC(=O)O (Cbz-[X2]V[Sta]A[Sta]-OH)
pIC50 [1]: 6.43 | CHI [2]: 49.19 | logP [3]: 3.97 | Activity [4]: Non-Toxic | Activity [5]: Non-Toxic

CC(C)C[C@H](NC(=O)[C@H](C)NC(=O)C[C@H](O)[C@H](CC(C)C)NC(=O)[C@@H](NC(=O)[C@@H](NC(=O)C(F)(F)F)C(C)C)C(C)C)[C@@H](O)CC(=O)O (Tfa-VV[Sta]A[Sta]-OH)
pIC50 [1]: < 5.40 | pIC50 [21]: < 5.70 | CHI [2]: 43.68 | logP [3]: 2.44

CC(C)CC(=O)N[C@H](C(=O)N[C@H](C(=O)N[C@@H](CC(C)C)[C@@H](O)CC(=O)N[C@@H](C)C(=O)N[C@@H](CC(C)C)[C@@H](O)CC(=O)O)C(C)C)C(C)C [PEPSTATIN]
pIC50 [1]: 7.30 | CHI [2]: 39.55 | logP [3]: 2.37
